The results in this text go back to US20260273072A1, “NOVEL PLK1 DEGRADATION INDUCING COMPOUND” (UPPTHERA, INC., priority 2023, published 2026).

Molecules are shown by their SMILES. Where two headings read alike, the source gives them in different places. Where only a bound is given, the exact number is not on record here.

What all share (format): cell-based
Data set [1] relates to MRC-5 cell line. Briefly: Cell viability assay for MRC-5 cell line (EZ-Cytox). To be noted: for IC50: Homo sapiens, MRC5, 120 h. How it is done:
4. Cell Viability Assay for MRC-5 Cell Line
(1) Culture of MRC-5 Cell Line
The MRC-5 cell line was purchased from KCLB. Passage of cultured cells was maintained within P15.
(2) Treatment of Compounds of the Present Invention
Then, it was cultured in 37° C. CO2 incubator (Thermo Fisher Scientific) for 5 days.
(3) Cytotoxicity Experiment
CO2 incubator for 4 hours.

For data set [2], the target named is T1, PLK1 (Homo sapiens, UniProt P53350).
T1 construct: endogenous in cells; host or cells: HeLa LgBit (Plk1-HiBit KI): HeLa stably expressing LgBit, with a CRISPR/Cas9 knock-in of HiBit at the endogenous PLK1 locus
Briefly: Luciferase assay for PLK1 in HeLa LgBit (Plk1-HiBit KI) cell line. The following applies: 300 nM compound, luminescence after 9 hours. How it is done: 2. Luciferase Assay for PLK1
(1) Preparation and Culture of HeLa LgBit (Plk1-HiBit KI) Cell Line
A HeLa cell line in which the LgBit vector was transfected and expressed stably was prepared. Then, after constructing gRNA and donor to express the HiBit amino acid sequence behind the C-terminal of the PLK1 gene, which was inherent in the cell, it was inserted into the cell together with a vector capable of expressing CRISPR/Cas9. Only the cells in which the insertion was completed and knock-in had progressed were selected, sub-cultured and used.
For cell culture, DMEM (Gibco), FBS (Gibco), PS (Gibco), […] cell culture dish (SPL), […] cell culture dish (SPL), 96-well culture plate (SPL), PBS pH 7.4 (Gibco), TrypLE™ Express (Gibco), Cell counter (Thermo Fisher Scientific) and 0.4% Trypan Blue Solution (DYNEBIO) were used.
(2) Treatment of Compounds of the Present Invention and Method of Luciferase Assay
In the case of HeLa LgBit (Plk1-HiBit KI), the compounds were treated after being released after thymidine block, and the process was as follows. Thymidine (Sigma-Aldrich) was completely dissolved in ddH2O and used in the experiment. For thymidine block, the products were treated with 2 mM of thymidine and then incubated for 24 hours. For release and chemical treatment, the medium was suctioned and washed with 1×PBS. TrypLE™ (Gibco) was added and incubated in 37° C. CO2 incubator (Thermo Fisher Scientific) for 5 mins. Cells neutralized by adding complete media were counted through a counter. For each well of a 96-well culture plate (SPL), 3.3×10^4 cells and a total medium volume of 150 μl were seeded and incubated in a CO2 incubator.
Each cell line was incubated in a CO2 incubator for 18 hours, and Endurazine (Promega, Cat. No. N257B) was added to each well to make up 4% of the total volume. After adding compounds of Examples in a 96-well white plate (SPL) to a concentration of 300 nM, the wavelength of the plate reader (BMG Labtech, CLARIOstar Plus) was set to 470-480 nm, and then the luminescence was tracked in real time.
In Table 2, Activity represents the ratio of the luminescence value of each Exemplary Compound treatment group to DMSO treatment group (+++: <0.3, ++: <0.5, +: <0.7).
For orientation: The HiBiT peptide binds its large partner to form an active luciferase.

For data set [3], the system named is NCI-H526 cell line. Briefly: Cell viability assay for NCI-H526 cell line (EZ-Cytox). The following applies: Homo sapiens, NCI-H526, 120 h; H526 cells, 5 days, 3000 nM to 0.46 nM. How it is done:
(§1) 3. Cell Viability Assay for NCI-H69, NCI-H526 Cell Lines
(§2) (1) Culture of NCI-H69, NCI-H526 Cell Lines
(§3) The NCI-H69 (hereafter H69) and NCI-H526 (hereafter H526) cell lines were purchased from KCLB.
(§4) (2) Treatment of Compounds of the Present Invention and Method of Cell Viability Assay
(§5) After treating the compound to each well to make the total volume of 200 μl, it was cultured in a CO2 incubator (Thermo Fisher Scientific) for 5 days. […] The absorbance of the completely cultured sample was measured by setting the wavelength of a plate reader (BMG Labtech) to […], and was measured after shaking for 3 minutes in a plate reader before measurement.
(§6) The results of cell viability for H526 and H69 cell line are shown in Table 3 and Table 4, respectively.
(§7) In Table 3 and Table 4, Activity represents IC50 value of each Exemplary Compound treatment group to H526 and H69 cell line, respectively (A: <30 nM, B: <50 nM, C: <100 nM, D: <200 nM, E: <400 nM).

In data set [4] the test system is NCI-H69 cell line. Briefly: Cell viability assay for NCI-H69 cell line (EZ-Cytox). The following applies: Homo sapiens, NCI-H69, 120 h; H69 cells, 5 days, 3000 nM to 0.46 nM. On the procedure: as §1, §2, §3, §4, §5, §6, §7
Where [5] appears, read: read-out: Activity: IC50 value, cell viability, MRC-5 cell line (Comparative Compounds).
Where [6] appears, read: MRC-5 normal cell line, 5 days, 10000 nM to 1.52 nM, read-out: Activity: IC50 value, cell viability, MRC-5 cell line (Exemplary Compounds).

T1 sequence (P53350 whole entry): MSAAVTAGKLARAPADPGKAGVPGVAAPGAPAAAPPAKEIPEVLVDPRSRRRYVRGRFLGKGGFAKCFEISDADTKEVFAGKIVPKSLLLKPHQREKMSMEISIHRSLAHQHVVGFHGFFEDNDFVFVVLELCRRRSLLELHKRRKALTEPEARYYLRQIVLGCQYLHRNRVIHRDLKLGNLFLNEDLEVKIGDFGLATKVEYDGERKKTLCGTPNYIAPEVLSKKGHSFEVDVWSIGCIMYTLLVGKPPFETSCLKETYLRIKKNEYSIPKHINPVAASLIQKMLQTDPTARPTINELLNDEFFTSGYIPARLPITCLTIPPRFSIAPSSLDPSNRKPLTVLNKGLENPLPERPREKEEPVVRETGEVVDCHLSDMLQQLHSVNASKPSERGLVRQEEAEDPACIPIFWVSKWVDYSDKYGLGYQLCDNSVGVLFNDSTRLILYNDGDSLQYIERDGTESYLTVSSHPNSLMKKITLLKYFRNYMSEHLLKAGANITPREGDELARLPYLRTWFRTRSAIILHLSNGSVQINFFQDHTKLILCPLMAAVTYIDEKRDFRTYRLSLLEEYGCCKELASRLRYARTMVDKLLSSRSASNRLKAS

Regarding `CC[C@@H]1C(=O)N(C)c2cnc(Nc3ccc(C(=O)NCCOCCOCCNc4cccc5c4C(=O)N(C4CCC(=O)NC4=O)C5=O)cc3OC)nc2N1C1CCCC1` (stereo partly shown) [Comparative Compound 1, reference compound], the “Cytotoxicity in normal cell line versus cancer cell lines (in words)” value in data set [1] (MRC-5 normal cell line compared with cancer cell lines) is “exhibited a high level of cytotoxicity in normal cell line”.

Broadly, the IC50 is the midpoint of a concentration-inhibition curve. Consider `CC[C@@H]1C(=O)N(C)c2cnc(Nc3ccc(C(=O)NC4CCN(C)CC4)cc3OC)nc2N1C1CCCC1` [Comparative Compound 2, BI2536, reference compound], for which the IC50 in data set [1] (setting [5]) was found to be 3090 nM.

Consider `CC[C@@H]1C(=O)N(C)c2cnc(Nc3ccc(C(=O)N[C@H]4CC[C@H](N5CCN(CC6CC6)CC5)CC4)cc3OC)nc2N1C(C)C` [Comparative Compound 3, Volasertib, reference compound], for which the 50% inhibitory concentration (IC50) in data set [1] (setting [5]) turned out to be 2940 nM.

As to `COc1cc(C(=O)NC2CCN(C)CC2)c(F)cc1Nc1ncc2c(n1)N(C1CCCC1)CC(F)(F)C(=O)N2C` [Comparative Compound 4, TAK960, reference compound], the 50% inhibitory concentration (IC50) in data set [1] (setting [5]) turned out to be 9150 nM.

Take `COc1cc(C(=O)NN2CCC(N3CC4(CCN(c5cccc(C6CCC(=O)NC6=O)c5)CC4)C3)CC2)ccc1Nc1ncc2c(n1)N(C1CCCC1)CC(F)(F)C(=O)N2C` (stereo not shown) [Compound 1, 4-((9-cyclopentyl-7,7-difluoro-5-methyl-6-oxo-6,7,8,9-tetrahydro-5H-pyrimido[4,5-b][1,4]diazepin-2-yl)amino)-N-(4-(7-(3-(2,6-dioxopiperidin-3-yl)phenyl)-2,7-diazaspiro[3.5]nonan-2-yl)piperidin-1-yl)-3-methoxybenzamide]: in data set [2], the “Activity: ratio of the luminescence value of compound treatment group to DMSO treatment group” value (shortened to “Activity: ratio”) was “++ (++: <0.5)”. For the same compound, the IC50 in data set [3] was below 30 nM; in data set [4], below 50 nM; in data set [1] (setting [6]), above 10000 nM.

Regarding `COc1cc(C(=O)NN2CCC(C3CCN(c4ccc(C5CCC(=O)NC5=O)cc4F)C3)CC2)ccc1Nc1ncc2c(n1)N(C(C)C)CC(F)(F)C(=O)N2C` (stereo not shown) [Compound 2, 4-((7,7-difluoro-9-isopropyl-5-methyl-6-oxo-6,7,8,9-tetrahydro-5H-pyrimido[4,5-b][1,4]diazepin-2-yl)amino)-N-(4-(1-(4-(2,6-dioxopiperidin-3-yl)-2-fluorophenyl)pyrrolidin-3-yl)piperidin-1-yl)-3-methoxybenzamide], the “Activity: ratio” value in data set [2] is “++ (++: <0.5)”. Further, the IC50 in data set [3] is below 50 nM; in data set [4], below 100 nM; in data set [1] (setting [6]), above 10000 nM.

Regarding `COc1cc(C(=O)NC2CCN(C3CN(c4ccc(C5CCC(=O)NC5=O)cc4F)C3)CC2)ccc1Nc1ncc2c(n1)N(C(C)C)CC(F)(F)C(=O)N2C` (stereo not shown) [Compound 3, 4-((7,7-difluoro-9-isopropyl-5-methyl-6-oxo-6,7,8,9-tetrahydro-5H-pyrimido[4,5-b][1,4]diazepin-2-yl)amino)-N-(1-(1-(4-(2,6-dioxopiperidin-3-yl)-2-fluorophenyl)azetidin-3-yl)piperidin-4-yl)-3-methoxybenzamide], the “Activity: ratio” value in data set [2] was “++ (++: <0.5)”. Moreover, the IC50 in data set [3] was below 50 nM; in data set [4], below 100 nM; in data set [1] (setting [6]), above 10000 nM.

For `CCN1CC(F)(F)C(=O)N(C)c2cnc(Nc3ccc(C(=O)NC4CC5(CCN(CC6CCN(c7ccc(C8CCC(=O)NC8=O)cc7F)CC6)CC5)C4)cc3OC)nc21` (stereo not shown) [Compound 4, N(7-((1-(4-(2,6-dioxopiperidin-3-yl)-2-fluorophenyl)piperidin-4-yl)methyl)-7-azaspiro[3.5]nonan-2-yl)-4-((9-ethyl-7,7-difluoro-5-methyl-6-oxo-6,7,8,9-tetrahydro-5H-pyrimido[4,5-b][1,4]diazepin-2-yl)amino)-3-methoxybenzamide], the IC50 in data set [3] is below 30 nM; in data set [4] it was below 30 nM; in data set [1] (setting [6]), above 10000 nM.

For `COc1cc(C(=O)NC2CC3(CCN(CCC4CCN(c5ccc(NC6CCC(=O)NC6=O)cc5F)CC4)CC3)C2)ccc1Nc1ncc2c(n1)N(C(C)C)CC(F)(F)C(=O)N2C` (stereo not shown) [Compound 31, 4-((7,7-difluoro-9-isopropyl-5-methyl-6-oxo-6,7,8,9-tetrahydro-5H-pyrimido[4,5-b][1,4]diazepin-2-yl)amino)-N-(7-(2-(1-(4-((2,6-dioxopiperidin-3-yl)amino)-2-fluorophenyl)piperidin-4-yl)ethyl)-7-azaspiro[3.5]nonan-2-yl)-3-methoxybenzamide], the “Activity: ratio” value in data set [2] is “+++ (+++: <0.3)”. For the same compound, the IC50 in data set [3] and in data set [4] was below 30 nM in each case.

Consider `COc1cc(C(=O)NC2CC3(CCN(CCC4CCN(c5cc(F)c(NC6CCC(=O)NC6=O)cc5F)CC4)CC3)C2)ccc1Nc1ncc2c(n1)N(C(C)C)CC(F)(F)C(=O)N2C` (stereo not shown) [Compound 61, 4-((7,7-difluoro-9-isopropyl-5-methyl-6-oxo-6,7,8,9-tetrahydro-5H-pyrimido[4,5-b][1,4]diazepin-2-yl)amino)-N-(7-(2-(1-(4-((2,6-dioxopiperidin-3-yl)amino)-2,5-difluorophenyl)piperidin-4-yl)ethyl)-7-azaspiro[3.5]nonan-2-yl)-3-methoxybenzamide], for which the “Activity: ratio” value in data set [2] is on record as “++ (++: <0.5)”. Further, the IC50 in data set [3] and in data set [4] was below 30 nM in each case.

Take `COc1cc(C(=O)NC2CCN(CCC3CCN(c4cc(F)c(NC5CCC(=O)NC5=O)cc4F)CC3)CC2)ccc1Nc1ncc2c(n1)N(C(C)C)CC(F)(F)C(=O)N2C` (stereo not shown) [Compound 62, 4-((7,7-difluoro-9-isopropyl-5-methyl-6-oxo-6,7,8,9-tetrahydro-5H-pyrimido[4,5-b][1,4]diazepin-2-yl)amino)-N-(1-(2-(1-(4-((2,6-dioxopiperidin-3-yl)amino)-2,5-difluorophenyl)piperidin-4-yl)ethyl)piperidin-4-yl)-3-methoxybenzamide]: the “Activity: ratio” value in data set [2] is reported as “++ (++: <0.5)”. In addition, the IC50 in data set [3] and in data set [4] was below 30 nM throughout.

With `COc1cc(C(=O)NC2CC3(CCN(CC4CCN(c5cc(F)c(NC6CCC(=O)NC6=O)cc5F)CC4)CC3)C2)ccc1Nc1ncc2c(n1)N(C1CCCC1)CC(F)(F)C(=O)N2C` (stereo not shown) [Compound 70, 4-((9-cyclopentyl-7,7-difluoro-5-methyl-6-oxo-6,7,8,9-tetrahydro-5H-pyrimido[4,5-b][1,4]diazepin-2-yl)amino)-N-(7-((1-(4-((2,6-dioxopiperidin-3-yl)amino)-2,5-difluorophenyl)piperidin-4-yl)methyl)-7-azaspiro[3.5]nonan-2-yl)-3-methoxybenzamide], in data set [2], the “Activity: ratio” value is “+++ (+++: <0.3)”. The IC50 in data set [3] and in data set [4] was below 30 nM each time.
